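A five-concentration, 48-hour dose response in 96-well plates underlies each endpoint, interpolated linearly between surrounding concentrations. TGI denotes the concentration required for complete inhibition of growth.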
Tests used:
Assay in all cases: NCI tumour cell line growth inhibition, 48 h
COLO 205 colon = system: COLO 205 colon
HCT-116 colon = system: HCT-116 colon
MDA-N = system: MDA-N
NCI-H460 lung = system: NCI-H460 lung
OVCAR-4 ovarian = system: OVCAR-4 ovarian
SF-539 CNS = system: SF-539 CNS
SK-MEL-28 melanoma = system: SK-MEL-28 melanoma
SR leukemia = system: SR leukemia
SW-620 colon = system: SW-620 colon
T-47D breast = system: T-47D breast
UACC-62 melanoma = system: UACC-62 melanoma

SMILES | TGI (COLO 205 colon) [µM] | TGI (HCT-116 colon) [µM] | TGI (MDA-N) [µM] | TGI (NCI-H460 lung) [µM] | TGI (OVCAR-4 ovarian) [µM] | TGI (SF-539 CNS) [µM] | TGI (SK-MEL-28 melanoma) [µM] | TGI (SR leukemia) [µM] | TGI (SW-620 colon) [µM] | TGI (T-47D breast) [µM] | TGI (UACC-62 melanoma) [µM]
CCCCNc1nc2ccccc2c2c1ncn2CC(C)C | > 100 | > 100 | > 100 | > 100 | > 100 | > 100 | > 100 | > 100 | > 100 | > 100 | > 100
CCc1c(CN)c(CC)c(CNC2=NCCN2)c(CC)c1CNC1=NCCN1 | > 100 | > 100 | > 100 | > 100 | > 100 | > 100 | > 100 | > 100 | > 100 | > 100 | > 100
O=c1[nH]nc(Cc2ccc(Cl)cc2)n1/N=C/c1ccco1 | > 100 | > 100 | > 100 | > 100 | > 100 | 90.5 | > 100 | > 100 | > 100 | > 100 | > 100
CC(C)(C)c1cc(-c2cc(C(C)(C)C)[nH]n2)n[nH]1 | > 100 | > 100 | > 100 | > 100 | > 100 | > 100 | > 100 | > 100 | > 100 | > 100 | > 100
COc1ccc(CC2C3=C(CCN2C(=O)C2CCC2)CC2(CC3)OCCO2)cc1O (stereo not given) | 48 | > 100 | 31.6 | > 100 | > 100 | 75.9 | > 100 | > 100 | > 100 | > 100 | > 100
Cc1sc2[nH]c(=O)oc(=O)c2c1C | > 100 | > 100 | > 100 | > 100 | > 100 | > 100 | > 100 | > 100 | > 100 | > 100 | > 100
O=[N+]([O-])c1ccc2nc(Cl)n[n+]([O-])c2c1 | 25.2 | 25.8 | 24.9 | 43.3 | 26.8 | 25.3 | 34 | 4.93 | 35.5 | 47.3 | 27.9
C[Si](C)(C)C#Cc1cc(-c2nc3ccccc3s2)ccc1N | 29.5 | 26.6 | 33.7 | 31.1 | 29.8 | 34.5 |  | 67.8 | 35 | > 100 | 33.2
COC(=O)CCC(C)[C@H]1CCC2C3C(C[C@H](OC(C)=O)[C@@]21C)[C@@]1(C)CCC2(C[C@H]1C[C@H]3OC(C)=O)OOC1(CCCC1)OO2 (stereo not given in full) | > 100 | > 100 | > 100 | > 100 | 87.6 | > 100 | > 100 | 15.4 | > 100 | 75 | 
O=[N+]([O-])c1ccc(-c2cc(O)c3nc4ccccc4n3c2)cc1 | > 100 | > 100 | > 100 | > 100 | > 100 | > 100 | > 100 | > 100 | > 100 | > 100 | > 31.6
Cc1ccc(S(=O)(=O)N2CCN(S(=O)(=O)c3ccc(C)cc3)CCN(S(=O)(=O)c3ccc(C)cc3)Cc3cc(C#N)c(C#N)cc3CN(S(=O)(=O)c3ccc(C)cc3)CC2)cc1 | > 100 | > 100 | > 100 | > 100 | > 100 | > 100 | > 100 | > 100 | > 100 | > 100 | > 100
N#Cc1cnc(-n2[nH]c3c(c2=O)CCCC3)[nH]c1=O | > 100 | > 100 | > 100 | > 100 | > 100 | > 100 | > 100 | > 100 | > 100 | > 100 | > 100
O=C1c2cccnc2S(=O)(=O)N1c1ccc(Oc2ccccc2)cc1 | > 100 | > 100 | > 100 | > 100 | > 100 | > 100 | > 100 | > 100 | > 100 | > 100 | > 100
O=C(NC(=S)Nc1ccc2c(c1)Sc1ccccc1O2)c1ccc([N+](=O)[O-])cc1 | > 100 | > 100 | > 100 | > 100 | > 100 | > 100 | > 100 | > 100 | > 100 | > 100 | > 100
CCN(CC)C(=O)Cn1c(-c2ccccc2)cc2ccccc21 | 34 | > 100 | > 100 | > 100 | > 100 | > 100 | > 100 | > 100 | > 100 | > 100 | 
CCOP(=O)(OCC)C(C)(C)N(C)/C(F)=N/C(F)(F)F | > 100 | > 100 | > 100 | > 100 | > 100 | > 100 | > 100 | > 100 | > 100 | > 100 | > 100
COc1ccc(OC)c(CSc2ccc(OC)c(OC)c2)c1 | > 100 | > 100 | > 100 | > 100 | > 100 | > 100 | > 100 | > 100 | > 100 | > 30.5 | > 100
CCCCCC1CC=CC(=O)O1 (stereo not given) | 16.7 | 5.83 | 38.2 | 33.6 | 13.8 | 3.83 | 18.5 | 31.6 | 29.1 | 62.4 | 25.3

Source: PubChem BioAssay (NCI)
